Laboratory results published in patent publication US20240091202A1, “COMPOSITIONS FOR THE TREATMENT OF EBV ASSOCIATED DISEASES OR CONDITIONS” (Universität Basel, priority 2021, published 2024).

Legend:
[1] = test system: primary B cells infected with EBV B95-8; test: EBV-driven B cell proliferation, CellTrace Violet flow cytometry assay; assay type: cell-based, human; details: different BMS-986205 concentrations added at 0 hpi; analyzed 8 days post infection; vs vehicle
Experimental: Proliferation was analyzed in the presence of vehicle or different BMS-986205 concentrations added on day 0 post EBV-infection of primary B cells (n=2). Uninfected and h.i. EBV infected cells served as internal controls. Proliferation was analyzed 8 days post infection by flow cytometry using a cell trace violet based assay.
Bulk B cells were stained with CellTraceTM Violet (Cell Proliferation Kit, ThermoFisher) then infected with EBV B95-8 as described above. Proliferation was assessed by determining the number of proliferated cells (cells that had proliferated at least once after infection) with IDO1 inhibitor/number of proliferated cells with vehicle control.

[2] = test system: primary B cells infected with EBV B95-8; test: EBV-driven B cell transformation efficiency assay (LCL outgrowth); assay type: cell-based, human; details: for restoration of EBV's capacity to latently infect/transform B cells in the presence of BMS-986205: 10 μM BMS-986205 plus 50 μM L-KYNU or 500 μM NaMN, added day 0; for rescue of the capacity of EBV to transform IDO1-blocked B cells: summary statement, added together with IDO1 inhibitor
Experimental: Transformation efficiency was analyzed 5 weeks post infection and plotted against the added multiplicity of infection (MOI).
Data are represented as median value of indicated individual data points (n=4 independent experiments) relative to Ctrl siRNA (set at one), and compared using two-tailed Student's t-test.
An IDO1 inhibitor as disclosed herein can inhibit B cell transformation. Preferably, an IDO1 inhibitor as disclosed herein can inhibit EBV-induced B cell transformation. Transformation can be analysed by methods known in the art, for example using a transformation efficiency assay. In this assay B cells are seeded into a cell culture plate and infected with increasing virus concentrations. An IDO1 inhibitor can be added immediately after infection. After an incubation period of 5 weeks, the number of wells positive for LCL outgrowth are counted. Alternatively, any other suitable assay can be used. Suitably, an IDO1 inhibitor as disclosed herein can inhibit B cell transformation at a concentration of about 200 μM or less, about 150 μM or less, about 100 μM or less, about 50 μM or less, about 20 μM or less, about 15 μM or less, about 10 μM or less, about 5 μM or less, or about 1 μM or less, preferably about 100 μM or less or about 10 μM or less in the assays described herein. An IDO1 inhibitor as disclosed herein can be any one of the IDO inhibitors as disclosed herein that can inhibit B cell transformation, preferably EBV-induced B cell transformation.
Bulk B cells were seeded at a final concentration of 1×10^6 cells/ml in LCM-10 medium in a 96-well round bottom plate and infected with increasing concentration of EBV B95-8 (MOI 1×10^3-1×10^−4) by spinoculation. […] 5 weeks post-infection the number of wells with morphologic changes of transformation was counted and plotted as percentage of wells positive for LCL outgrowth against virus concentration in MOI.

IDO1 = IDO1 inhibition in humanized mouse model of EBV infection: tryptophan and L-kynurenine levels; assay type: in vivo, humanized NSG mice; details: Epacadostat 200 mg/kg i.p.; d -7, day 2 and day 7 pi; vs vehicle (FIG. 10)
Experimental: Data are shown as box and whiskers (median, IQR and range) and compared by two-tailed Student's t-test.
(§1) A humanized mouse model of EBV infection was then used to directly interrogate the role of IDO1 in EBV-driven immune dysregulation and lymphomagenesis. Briefly, NSG mice (Jackson Laboratory, Bar Harbor, ME, USA) were injected with human hematopoietic progenitor cells shortly after birth, and reconstitution with human immune system components was confirmed at 3-4 months of age (data not shown). […]. Efficacy of Epacadostat-mediated IDO1 inhibition was verified by quantifying tryptophan and L-kynurenine plasma levels (FIG. 10). EBV viral loads were assessed in DNA preparations from whole blood at week 2, 3, 4, and 5 pi, and in the spleen at the day of sacrifice, using Taqman real-time PCR with modified primers (5′-[…]-3′ and 5′-[…]-3′) and a fluorogenic probe (5′-FAM […]-TAMRA-3′) to detect the conserved EBV BamHI-W fragment. Samples were analyzed in triplicates and run on a CFX384 Touch Real-time PCR Detection System (Bio-Rad). DNA from whole blood was extracted with the NucliSENS EasyMAG System (Biornerieux) and DNA from splenic tissues was isolated using the DNeasy Blood and Tissue kit (QIAGEN), according to the manufacturer's recommendations.

EBV = EBV viral loads in blood and spleen, humanized mouse model (Taqman real-time PCR); assay type: in vivo, humanized NSG mice
Experimental: […]. Data are shown as median values from the indicated individual measurements, compared using two-tailed Student's t-test.
(§2) Median values from the indicated individual measurements are shown, compared using two-tailed Student's t-test.
as §1

CD8+ T cells = test: CD8+ T cell expansion, humanized mouse model of EBV infection; assay type: in vivo, humanized NSG mice; details: Epacadostat i.p.
Experimental: as §2
Data are shown as medians and two-tailed Student's t-test was used to compare groups.
as §1

EBV-positive tumors = test: EBV-positive tumor burden, humanized mouse model of EBV infection; assay type: in vivo, humanized NSG mice; details: Epacadostat i.p. vs vehicle, n=10 each (FIG. 13A-13C); text concludes reduced lymphomagenesis
Experimental: […]. A Chi-Square test was used to compare groups.
(lower panels) are shown, stained with hematoxylin and eosin (HE) (left panels) and EBER FISH (right panels).
A Chi-Square test was used to compare groups. […].
as §1

[3] = 5 weeks post infection (FIG. 6A)

Question: Which results are given for `C[C@@H](C(=O)Nc1ccc(Cl)cc1)C1CCC(c2ccnc3ccc(F)cc23)CC1` (stereo partly shown) [BMS-986205]?
Answer: EBV driven B cell proliferation [1]: inhibited in a dose-dependent manner; EBV driven B cell transformation ([2]; 10 μM BMS-986205 added at 0 hpi, analyzed 5 weeks post infection, vs vehicle): efficiently suppressed

Question: With `NS(=O)(=O)NCCNc1nonc1C(=NO)Nc1ccc(F)c(Br)c1` [Epacadostat] as the compound, how does the “transformation of EBV-infected B cells” value ([2]; 100 μM Epacadostat added at 0 hpi, 5 weeks post infection (FIG. 6B)) read?
Answer: Its value is “efficiently suppressed”.

Question: What about the “efficacy of IDO1 inhibition by tryptophan and L-kynurenine plasma levels” value (IDO1) of the same compound?
Answer: The value was “verified”.

Question: What about the splenic viral loads (EBV; Epacadostat i.p., 5 weeks pi, vs vehicle-treated (FIG. 11B)) of the same compound?
Answer: The splenic viral loads was “borderline reduced”.

Question: What about the “blood EBV load” value (EBV; Epacadostat i.p., AUC of viral load 2-5 weeks pi, vs vehicle-treated (FIG. 11A)) of the same compound?
Answer: The value was “efficiently reduced”.

Question: And the “effect on viral loads” value (EBV; treated throughout the experiment and also treated for only 2 weeks after infection (data not shown))?
Answer: Its value is “observed”.

Question: And the “Splenic CD8VCD4^+ T cell ratios” value (CD8+ T cells; day of sacrifice (FIG. 12C))?
Answer: Its value is “remained unchanged”.

Question: And the “expansion of peripheral blood CD8+ T cells” value (CD8+ T cells; week 0 to week 5 pi, vs vehicle (FIG. 12A and 12B))?
Answer: Its value is “prevented”.

Question: And the “effect on EBV-driven B cell tumorigenesis (macroscopic and microscopic tumor burden)” value (EBV-positive tumors)?
Answer: The value was “equally clear”.

Question: With `O=C(O)c1ccc[n+]([C@@H]2O[C@H](COP(=O)(O)O)[C@@H](O)[C@H]2O)c1` [NaMN] as the compound, how does the “restoration of EBV's capacity to latently infect/transform B cells in the presence of BMS-986205” value [2, 3] read?
Answer: The value was “fully restored”.

Question: What about the “transformation efficiency compared to vehicle” value ([2]; 10 μM BMS-986205 plus 500 μM NaMN, day 0, 5 weeks post infection (FIG. 6A)) of the same compound?
Answer: The value was “slightly increased”.

Question: And the “rescue of transformation of B cells in the presence of Epacadostat” value ([2]; 100 μM Epacadostat plus 500 μM NaMN, day 0, 5 weeks post infection (FIG. 6B))?
Answer: Its value is “fully rescued”.

Question: And the “rescue of the capacity of EBV to transform IDO1-blocked B cells” value [2]?
Answer: Its value is “fully rescue”.

Question: What does the source list for `Nc1ccccc1C(=O)C[C@H](N)C(=O)O` [L-KYNU, L-Kynurenine]?
Answer: restoration of EBV's capacity to latently infect/transform B cells in the presence of BMS-986205 [2, 3]: partially restored; rescue of the capacity of EBV to transform IDO1-blocked B cells [2]: partially and dose-dependently rescued
